{
  "source": "patent US20170020909A1",
  "about": "“METHODS OF TREATING GLAUCOMA USING AMP-ACTIVATED PROTEIN KINASE (AMPK) ACTIVATORS” (Massachusetts Eye and Ear Infirmary, priority 2014, published 2017)",
  "key": {"[1]": {"tested_on": "laminin", "assay": "Immunoblot of laminin in conditioned media of human TM cells", "type": "cell-based", "details": "24 hours", "protocol": "(§1) FIGS. 5A-E. AICAR suppresses ECM proteins in primary human TM cells under basal and TGF-β2 stimulatory conditions. (A) Representative immunoblots of ECM proteins from conditioned media (CM) of human TM cells treated for 24 hours with PBS vehicle or 0.5 mM AICAR and (B) integrated band intensities calculated from those immunoblots. (C) Representative immunoblots of ECM proteins from CM of human TM cells under stimulation with 2.5 ng/mL TGF-β2. Cells were pre-incubated for 1 hour with PBS or 0.5 mM AICAR prior to full 24-hour treatment. (D) Mean integrated band intensities. Data in panels B and D are expressed as mean±SEM (*p<0.05 vs. PBS vehicle by student t-test; n=5-7). (E) Representative 10% acrylamide gels stained with Coomassie Brilliant Blue as a loading control. […]\n(§2) At the conclusion of each experiment for matricellular and ECM protein detection, conditioned media (CM) from TM cell cultures was harvested and centrifuged at 5000 rpm for 10 minutes at 4° C. The supernatant was then concentrated (Amicon Ultra-4 Filter Unit, 10 kDa; Millipore, Milford, Mass.), and protein content quantified using the DC Protein Assay kit adhering to manufacturer's protocols (Bio-Rad, Hercules, Calif.). […] Samples were then centrifuged at 14,000 rpm for 15 minutes at 4° C. and protein content quantified. […]"}, "[2]": {"tested_on": "SPARC", "assay": "Immunoblot of SPARC in conditioned media of human TM cells", "type": "cell-based", "details": "24 hours", "protocol": "as §1, §2"}, "[3]": {"details": "0.5 mM AICAR vs PBS vehicle, basal"}, "[4]": {"details": "0.5 mM AICAR, under TGF-β2 stimulation with 2.5 ng/mL"}},
  "data": [
    {"smiles": "NC(=O)c1ncn([C@@H]2O[C@H](CO)[C@@H](O)[C@H]2O)c1N", "note": "[AICAR, 5-Aminoimidazole-4-carboxamide riboside]", "values": [
      {"measurement": "decrease in laminin (mean integrated band intensity)", "setting": "[1]; [3]", "result": 64, "unit": "%"},
      {"measurement": "decrease in laminin level", "setting": "[1]; [4]", "result": 33, "unit": "%"},
      {"measurement": "change in SPARC (mean integrated band intensity)", "setting": "[2]; [3]", "result": "no change"},
      {"measurement": "decrease in SPARC level", "setting": "[2]; [4]", "result": 64, "unit": "%"}
    ]}
  ]
}
